The text below walks through data of patent publication US6900200B2, “Tricyclic hydroxy carboxamides and derivatives thereof tocolytic oxytocin receptor antagonists” (Wyeth, priority 2001, dated 2005).

The target of the assay is T1, human vasopressin V1a receptor subtype (Homo sapiens, UniProt P37288).
T1 construct: host or cells: CHO cells; pZeoSV vector for the Thibonnier line
The assay can be described thus: Vasopressin binding in CHO cell membranes expressing human vasopressin V1a subtype receptors ([3H]Manning ligand radioligand binding). To be noted: for inhibition at 0.1 µM: @ 100 nM. From the text:
Vasopressin Binding in Chinese Hamster Ovary Cell Membranes Expressing Human Vasopressin V1a Subtype Receptors
Chinese hamster ovary cells (CHO cells) stably transfected with the human vasopressin V1a subtype receptors were either obtained from BioSignal Inc., 1744 rue Williams, Montreal, Quebec, Canada or obtained from M. Thibonnier, Case Western Reserve University School of Medicine, Cleveland, Ohio.
A. Passaging and Amplification of Cells
CHO cells transfected with the human vasopressin V1a subtype receptors obtained from M. Thibonnier (pZeoSV vector) are allowed to grow to confluency (approx. >90%) in T-150 flasks under sterile conditions, in a cell culture medium of F-12 Nutrient Mixture (HAM) with L-glutamine (Gibco Cat. #11765-054) containing 15 mM HEPES (Gibco Cat. #15630-080), 1% antibiotic/antimycotic (add 5 mL 100×, Gibco Cat. #15240-062 per 500 mL F-12), 250 μg/mL Zeocin (add 1.25 mL of 100 mg/mL Invitrogen R-250-01 per 500 mL F-12) and 10% Fetal Bovine Serum (Qualified, heat inactivated, Gibco Cat. #16140-063). The medium is removed by aspiration and the cells are washed with 10 mL of Hank's Balanced Salt solution (Gibco Cat. #14175-095). The salt solution is removed by aspiration and the cells are trypsinized with 5 mL of trypsin-EDTA (0.05% trypsin, 0.53 mM EDTA-4Na, Gibco Cat. #25300-070) for 1 min. The trypsin is removed by aspiration and the cells dislodged by tapping. Cell Culture medium (e.g. 30 mL for 1:30 split) is immediately added and mixed well to inactivate trypsin. 1 mL of detached cells is added to new culture flasks containing fresh cell culture medium (e.g., into 25 mL per T-150 flask), and mixed gently. The cells are incubated at 37° C. in 5% CO2. The medium is changed at 3 to 4 days interval (or as appropriate). The cells grow to confluency (approx. >75%-95%) within 7-8 days. All steps are done under sterile conditions.
The cells are washed twice gently with Hank's Balanced Salt solution (e.g,. use 10 mL per T-150 flask). The excess is removed and the cells are bathed for 15-30 min. in an enzyme-free Cell Dissociation Buffer (e.g. use 8 mL Hank's Based, Gibco Cat. #13150-016 per T-150 flask) until the cells are loosened. The contents are transferred to centrifuge tubes (50 mL) kept in an ice bath. All subsequent steps are done at 4° C. The tubes are centrifuged at 300×g for 15 min (1380 rpm on SORVAL, Model RT6000D, using the rotor for 50 mL tubes). The supernatant is discarded and the cells suspended in homogenizing buffer(10 mM Tris-HCl containing 0.25 M sucrose and 1 mM EDTA, pH 7.4) ensuring that the volume of the buffer is about ten times the volume of the cell pellet. The cells are pooled into a centrifuge tube (50 mL) and homogenized with Polytron at setting 6 for 10 sec. The homogenate is transferred into a Potter-Elvjehm homogenizer and homogenized with 3 strokes. The homogenate is centrifuged at 1500×g for 10 min at 4° C. (3100 rpm using SORVAL, model RT6000D, using the rotor for 50 mL tubes). The pellet is discarded. The supernatant is centrifuged at 100,000×g for 60 min. at 4° C. (Beckman L8-80M ultracentrifuge; spin at 37,500 rpm with rotor type 70 Ti for 50 mL tubes; 38,000 rpm with type 80Ti for 15 mL tubes; or 35,800 rpm with rotor type 45Ti). The supernantant is discarded and the pellet suspended in 3 to 4 mL of Tris buffer (50 mM TRIS—HCl, pH 7.4). The protein content is estimated by the Bradford or Lowry method. The volume of the membrane suspension is adjusted with the membrane buffer (50 mM Tris-HCl containing 0.1% BSA and 0.1 mM PMSF) to give 3.0 mg/mL (or as appropriate) of protein. The membranes are aliquoted and stored at −70° C.
C. Radioligand Binding Assay […]

T1 sequence (P37288 whole entry): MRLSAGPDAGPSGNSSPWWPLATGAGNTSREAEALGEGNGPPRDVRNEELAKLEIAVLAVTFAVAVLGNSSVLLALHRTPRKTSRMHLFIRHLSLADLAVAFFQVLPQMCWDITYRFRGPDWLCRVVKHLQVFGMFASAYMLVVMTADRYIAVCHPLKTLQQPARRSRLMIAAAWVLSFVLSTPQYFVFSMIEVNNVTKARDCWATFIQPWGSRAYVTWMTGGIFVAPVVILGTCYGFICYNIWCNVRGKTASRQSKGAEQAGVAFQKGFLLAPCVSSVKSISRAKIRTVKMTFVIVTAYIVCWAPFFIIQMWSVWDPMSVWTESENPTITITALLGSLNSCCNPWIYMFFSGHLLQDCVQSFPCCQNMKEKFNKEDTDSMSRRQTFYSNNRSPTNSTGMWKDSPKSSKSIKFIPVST

One may read the inhibition as the share of the control response that was lost under treatment. Read a low inhibition as a response near the control. Consider `COc1ccccc1-c1ccc(C(=O)N2Cc3ccc(C(=O)N(C)C[C@@H](O)CO)n3Cc3ccccc32)cc1C` (single isomer, unassigned) [Example 16], for which testing at 0.1 µM gave an inhibition of 68%. As for `COc1cc2c(cc1OC)N(C(=O)c1ccc(-c3ccccc3OC)c(C)c1)Cc1ccc(C(=O)N(C)C[C@H](O)[C@@H](O)[C@H](O)[C@H](O)CO)n1C2` [Example 37, 7,8-Dimethoxy-10-[(2′-methoxy-2-methyl-[1,1′-biphenyl]-4-yl)carbonyl]-10,11-dihydro-5H-pyrrolo[2,1-c][1,4]benzodiazepine-3-carboxylic acid methyl-[(2S, 3R, 4R, 5R)-2,3,4,5,6-pentahydroxy-hexyl)-amide], the inhibition at 0.1 µM is 6%. In turn, `COc1cccc(-c2ccc(C(=O)N3Cc4ccc(C(=O)N5CCN(CCO)CC5)n4Cc4ccccc43)cc2OC)c1` [Example 50, {10-[(2,3′-Dimethoxy[1,1′-biphenyl]-4-yl)carbonyl]-10,11-dihydro-5H-pyrrolo[2,1-c][1,4]benzodiazepin-3-yl}[4-(2-hydroxyethyl)-1-piperazinyl]methanone] returned an inhibition at 0.1 µM of 52%. On the same count and under the same terms, the same measure for `COc1cccc(-c2cc(OC)c(C(=O)N3Cc4ccc(C(=O)N5CCN(CCO)CC5)n4Cc4ccccc43)cc2Cl)c1` [Example 49, {10-[(6-Chloro-3,3′-dimethoxy[1,1′-biphenyl]-4-yl)carbonyl]-10,11-dihydro-5H-pyrrolo[2,1-c][1,4]benzodiazepin-3-yl}[4-(2-hydroxyethyl)-1-piperazinyl]methanone]: 1%. By IC50 is commonly meant the concentration needed to halve the response being measured. On to `Cc1cc(C(=O)N2Cc3ccc(C(=O)N4CCN(C[C@@H](O)CO)CC4)n3Cc3ccccc32)ccc1-c1ccccc1C(F)(F)F` [Example 6, (2R)-3-{4-[(10-{[2-Methyl-2′-trifluoromethyl-[1,1′-biphenyl]-4-yl]carbonyl}-10,11-dihydro-5H-pyrrolo[2,1-c][1,4]benzodiazepin-3-yl)carbonyl]piperazin-1-yl}propane-1,2-diol], for which the IC50 (value printed in parentheses) amounted to 2.41 µM.
